Results from US20190388425A1, “SUBSTITUTED IMIDAZOPYRIDINPYRIMIDINES” (Bayer Pharma Aktiengesellschaft, priority 2017, published 2019).

Target: T1, human full-length MKNK1 (Homo sapiens, UniProt Q9BUB5, T385D)
T1 construct: GST (N); purchased Carna Biosciences 02-145; host or cells: insect cells (baculovirus expression system)
Experiment: MKNK1 kinase high ATP assay (TR-FRET)
Format: biochemical
Settings: TR-FRET, 2 mM ATP (high ATP), 15 min preincubation with enzyme, 30 min reaction at 22° C.; read-out: MKNK1 IC50
How it was run: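 Full-length human MKNK1 (T385D) preincubated 15 min at 22 °C with compound in HEPES pH 7.5/MgCl2/DTT buffer; reaction with 2 mM ATP (final) and 0.06 μM biotinylated peptide (final), 30 min at 22 °C.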

T1 sequence (Q9BUB5 1-424 isoform Q9BUB5-2 T344D): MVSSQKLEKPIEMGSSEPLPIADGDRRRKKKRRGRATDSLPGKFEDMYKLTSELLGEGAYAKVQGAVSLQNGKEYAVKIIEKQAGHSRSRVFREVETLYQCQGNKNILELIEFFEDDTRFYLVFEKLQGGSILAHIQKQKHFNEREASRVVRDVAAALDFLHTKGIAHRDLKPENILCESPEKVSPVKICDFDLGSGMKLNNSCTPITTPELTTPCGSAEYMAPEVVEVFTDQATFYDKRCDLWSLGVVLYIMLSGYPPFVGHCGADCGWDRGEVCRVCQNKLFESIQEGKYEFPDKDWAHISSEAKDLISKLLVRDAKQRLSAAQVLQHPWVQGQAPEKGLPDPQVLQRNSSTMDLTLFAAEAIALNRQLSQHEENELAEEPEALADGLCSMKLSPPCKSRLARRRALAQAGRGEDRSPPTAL

**Q.** With `O=C1NC2(CCC2)n2c1c(Cl)cc(Nc1ncnc3sc4c(c13)CC[C@H](C(=O)N1C[C@H]3C[C@@H]1CO3)C4)c2=O` [Example 118, 8′-chloro-6′-({(7S)-7-[(1R,4R)-2-oxa-5-azabicyclo[2.2.1]heptan-5-ylcarbonyl]-5,6,7,8-tetrahydro[1]benzothieno[2,3-d]pyrimidin-4-yl}amino)-2′H-spiro[cyclobutane-1,3′-imidazo[1,5-a]pyridine]-1′,5′-dione] as the compound, how does the IC50 read?
**A.** The IC50 was 0.4 nM.

**Q.** Which IC50 does the source give for `NC(=O)[C@H]1CCc2c(sc3ncnc(Nc4cc(Cl)c5n(c4=O)C4(CSC4)NC5=O)c23)C1` [Example 119, (7S)-4-[(8-chloro-1,5-dioxo-1,5-dihydro-2H-spiro[imidazo[1,5-a]pyridine-3,3′-thietan]-6-yl)amino]-5,6,7,8-tetrahydro[1]benzothieno[2,3-d]pyrimidine-7-carboxamide] here?
**A.** Its IC50 is 0.9 nM.
